Measurements reported in patent publication US20250138031A1, “IN VITRO MEASUREMENT OF THE LYSIS OF A FIBRIN CLOT” (DIAGNOSTICA STAGO, priority 2021, published 2025).
“Also recorded” adds a separate entry of the source.

Tests used:
[1] = system: lysis of the fibrin clot in hemophilia-A plasma; test: Coagulation-Lysis test in turbidimetry with intrinsic activators instead of FXIa; assay type: biochemical, human; settings: all FVIII concentrations tested, 48 nM GEG, 290 nM silica, TF 0.5 pM
Description: The intrinsic activators in Stago reagents are ethylene glycol gallate at 23 mg/L (STA-Cephascreen) and silica at 20 g/L (STA-PTT analyzer).
As was done for the implementation of a viscoelastic method, turbidimetry tests were performed with a hemophilia-A patient from each group, overloaded with 0, 2, 20, 100% of Factor VIII (FVIII-Advate®). The coagulation reaction was initiated with ethylene glycol gallate (GEG) from 48 to 190 nM final test or with silica from 145 to 580 nM final test, without modifying the concentration of tissue factor which was kept at 0.5 pM final test for the two activators. These activators were added independently into the reagent under the same reference conditions as FXIa.
The aim is to determine the maximum difference in tolerance observed in parameters DOD t1, DOD t2, and TL, between FXIa and the intrinsic activators.

[2] = system: lysis of the fibrin clot in hemophilia-A plasma; test: Coagulation-Lysis test (turbidimetric, DOD t1 750 sec / t2 1400 sec) on hemophilia-A plasmas; assay type: biochemical, human
Description: Dynamic measurement of the formation and degradation of the fibrin clot is carried out on a set of samples. The test, called the “Coagulation-Lysis” test, is a turbidimetric, automated, encompassing test for measuring the formation and lysis of the fibrin clot. For the analysis, the invention takes advantage of only the “lysis” part of the fibrin clot formation and lysis curve. The test is performed by mixing the plasma sample, undiluted, with an intermediate reagent containing a very low concentration of tissue factor (TF), phospholipids (PPL), plasminogen activator (tPA), and activator of the intrinsic pathway, preferably factor XIa (FXIa). After incubating the mixture, the calcium reagent triggers the generation of thrombin and the formation of the fibrin clot which quickly begins to be degraded by the tPA (tissue plasminogen activator).
According to one embodiment, TF (tissue factor), PPL (phospholipids), FXIa, and tPA (tissue plasminogen activator) are mixed at the following concentrations: 0.5 pM, 4 μM, 100 PM and 0.13 μg/mL final test.
The undiluted plasma sample, preferably 200 μL, is mixed with the intermediate reagent, preferably 50 μL.
Next is a step of incubating the mixture at 37° C. then adding the calcium ion-based triggering reagent to the mixture (FIG. 1), preferably 50 μL in 102 mM final reagent (17 mM final test), to initiate the thrombin generation and fibrin clot formation (FIG. 1).
Then, the change in optical density is read (FIG. 1) dynamically (every 2 seconds) at a single wavelength between 350 and 800 nm, preferably at 540 nm and preferably for a duration of 1986 seconds (33 minutes).
In the context of this experimental section, the parameters or steps which were specifically used or carried out to obtain the presented results are as follows: • a. TF (tissue factor) and PPL (phospholipids) are mixed with an activator of the intrinsic pathway, FXIa, and tPA (tissue plasminogen activator), at the following concentrations: 0.5 pM, 4 μM, 100 pM, and 0.13 μg/mL final test. • b. The mixture is incubated at 37° C. then the calcium ion-based triggering reagent is added to the mixture, 50 μL in 102 mM final reagent (17 mM final test), to initiate formation of the fibrin clot. • c. The change in optical density is read dynamically (every 2 seconds) at a single wavelength, at 540 nm and for a duration of 1986 seconds (33 minutes). • d. The database is composed of all the deltas of the optical density (DOD) at the different measurement times and for each of the method parameters (Tmax; T09D—90% of the max DOD; TL—50% of the max DOD—max DOD is a measure of optical density). • e. […] This database is used as a training database which is trained on at least 70% of the overloaded samples selected randomly, and as a test database for the remaining overloaded samples (30%), then as a validation database for the patient samples.
The classification group is determined using the two DOD (delta optical density) parameters. For the turbidimetric method used, the times are defined within the ranges of [700-900] sec for time t1 and [1100-1400] sec for time t2. Preferably, time t1 was defined at 750 sec and time t2 was defined at 1400 sec. More precisely, the results shown in the Figures were obtained with t1=750 sec and t2=1400 sec. These parameters were selected in accordance with the method for the optimal choice or verification of these parameters, explained in this description. […] The range for time t2 was defined in combination with the results obtained at time t1.
As we did for the implementation of a viscoelastic method, we carried out turbidimetry tests where a hemophilia-A patient from each group is overloaded with different concentrations of therapeutic molecules of interest.
We wanted to test this type of molecule (below and FIG. 24) at concentrations of 0, 3, 15, and 30 μg/mL (Nougier et al. 2020) compared to the reference FVIII treatment (Advate®) at 0, 2, 20, and 100%. […]

[3] = at 15 mg/kg; cited from earlier work
[4] = system: inhibitor (antibodies directed against FIX); test: Residual titer of FIX after neutralization by the inhibitor in hemophilia-B plasma; assay type: biochemical, human; settings: 40% Rixubis®, 30 minutes of incubation at 37° C.
Text: For certain hemophilia patients, the presence of inhibitors justifies the use of emicizumab.

O=C(OCCO)c1cc(O)c(O)c(O)c1 [GEG, ethylene glycol gallate]
maximum deviation for parameters DOD t1, DOD t2 and TL compared to the reference method with FXIa ([1]; group 1): −9%
maximum deviation for parameters DOD t1, DOD t2 and TL compared to the reference method with FXIa ([1]; group 2): +3%
maximum deviation for parameters DOD t1, DOD t2 and TL compared to the reference method with FXIa ([1]; group 3): +8%

NC[C@H]1CC[C@H](C(=O)O)CC1 [tranexamic acid]
lysis kinetics of a fibrin clot ([2]; TXA (1 μg/mL, FIG. 7) in addition to maintenance therapy / missing factor FVIII, listed as TXA): becomes slower; also recorded: reducing lysis
classification group after treatment adjustment ([2]; group 3 patients (shortened lysis time), TXA added, FIG. 7): move these patients into group 2
DOD (delta optical density) at time t2 compared with DOD at time t1 ([2]; plasma concentration of 5 μg/mL of tranexamic acid in the sample): identical
plasma concentration [3]: 2000 ng/mL

Rixubis®: FIX molecule (Takeda) used as replacement molecule for hemophilia B
residual titer of FIX after neutralization ([4]; patient B14): 1%
residual titer of FIX after neutralization ([4]; patient B15): 21%

FXIII: Factor XIII or Catridecacog (NovoThirteen® NovoNordisk), activated by thrombin, stabilizes the clot
DOD t2 parameter ([2]; FXIII (NovoThirteen®) mainly in combination with FVIII, patients in the three groups): increases
resistance to lysis ([2]; FXIII in combination with FVIII, patients from the three groups): increases the resistance to lysis
change of classification group ([2]; hemophilia-A patient in group 3, 20% FVIII and 170% FXIII:Ag): moves from group 3 to group 2

B1: emicizumab: commercial bispecific antibody mimicking FVIII by forming a complex with activated Factor IX and Factor X (antibody, chains of the INN, looked up, V domains shown)
VH: QVQLVQSGSELKKPGASVKVSCKASGYTFTDNNMDWVRQAPGQGLEWMGDINTRSGGSIYNEEFQDRVIMTVDKSTDTAYMELSSLRSEDTATYHCARRKSYGYYLDEWGEGTLVTVSS
VL: DIQMTQSPSSLSASVGDRVTITCKASRNIERQLAWYQQKPGQAPELLIYQASRKESGVPDRFSGSRYGTDFTLTISSLQPEDIATYYCQQYSDPPLTFGGGTKVEIK
VH2: QVQLVESGGGLVQPGGSLRLSCAASGFTFSYYDIQWVRQAPGKGLEWVSSISPSGQSTYYRREVKGRFTISRDNSKNTLYLQMNSLRAEDTAVYYCARRTGREYGGGWYFDYWGQGTLVTVSS
VL2: B1 VL
classification of patient in group 2 versus group 3 ([2]; at 3 μg/mL emicizumab): overlap in classification
change in the group of overloaded hemophiliacs ([2]; emicizumab overload 0, 3, 15, 30 μg/mL): No change
change to DOD t1 ([2]; emicizumab overload 0, 3, 15, 30 μg/mL, regardless of the patient groups): little change
DOD t2 ([2]; groups 1 and 2, up to 15 μg/mL of emicizumab): increased
change in parameters DOD t1 and DOD t2 ([2]; patient in group 3, emicizumab overload): little change in parameters
resistance to lysis ([2]; patients in groups 1 and 2, emicizumab overload): increasing the resistance to lysis
